# According to patent US10729688B2, “Hepatitis B antiviral agents” (Enanta Pharmaceuticals, Inc., priority 2018, dated 2020):
# System: not listed separately
# Test: Compound toxicity, ATPLite total ATP levels
# Assay type: cell-based
# Details: human, HepAD38 cells; 15,000 cells/well; three days after compound addition; total ATP levels reduced by 50% relative to no drug controls
# Experimental: (§1) Methods: HepAD38 cells were maintained as previously reported (Ladner et al, Antimicrob. Agents Chemother. 1997, 4, 1715). Briefly, cells were passaged upon attaining confluency in DMEM/F12 media in the presence of 10% FBS, Penn/Strep, 250 μg/mL G418, and 1 ug/ml tetracycline. Compounds were screened by first washing cells three times with PBS to remove tetracycline, and plating in 96 well plates at 35,000 cells/well. Compounds dissolved in DMSO were then diluted 1:200 into wells containing cells. Five days after compound addition, material was harvested for analysis. For an extended 8 day analysis, cells were plated and treated as described above, but media and compound were refreshed on day 2 and day 5 post initial treatment.
# Compound toxicity was evaluated by seeding cells at 15,000 cells/well and treating with compound as described above.
row,Compound,CC50 at 3 days [nM]
1,O=C(Nc1cc(F)c(F)c(F)c1)N1Cc2c(N3CCCS3(=O)=O)cnn2[C@@H]2CCC[C@@H]21 [Example 10],> 25000
2,O=C(Nc1ccc(F)c(F)c1)N1Cc2c(N3CCCS3(=O)=O)cnn2[C@@H]2CCC[C@@H]21 [Example 11],> 25000
3,O=C(Nc1ccc(F)c(Cl)c1)N1Cc2c(N3CCCS3(=O)=O)cnn2[C@@H]2CCC[C@@H]21 [Example 12],> 25000
4,C[C@@H]1N(c2cnn3c2CN(C(=O)Nc2cc(F)c(F)c(F)c2)[C@H]2CCC[C@H]23)C(=O)OC1(C)C [Example 15],> 25000
5,C[C@@H]1N(c2cnn3c2CN(C(=O)Nc2ccc(F)c(F)c2)[C@H]2CCC[C@H]23)C(=O)OC1(C)C [Example 17],> 25000
6,C[C@@H]1N(c2cnn3c2CN(C(=O)Nc2ccc(F)c(Cl)c2)[C@H]2CCC[C@H]23)C(=O)OC1(C)C [Example 18],> 25000
7,CC1(C)CN(c2cnn3c2CN(C(=O)Nc2cc(F)c(F)c(F)c2)[C@H]2CCC[C@H]23)C(=O)O1 [Example 19],> 25000
8,CC(C)[C@H]1COC(=O)N1c1cnn2c1CN(C(=O)Nc1cc(F)c(F)c(F)c1)[C@H]1CCC[C@H]12 [Example 26],> 25000

# System: HBV
# Test: HepAD38 antiviral assay: reduction of viral product accumulation
# Assay type: cell-based
# Details: Hepatitis B virus, 120 h; HepAD38 cells, tetracycline removed; harvest five days after compound addition; viral product (virion DNA by qPCR, or HBsAg/HBeAg by ELISA) reduced by 50% relative to no drug controls
# Experimental: as §1
# On harvest day, virion DNA was obtained by lysing with Sidestep Lysis and Stabilization Buffer and then quantified via quantitative real time PCR. Commercially available ELISA kits were used to quantitate the viral proteins HBsAg (Alpco) or HbeAg (US Biological) by following the manufacturer's recommended protocol after diluting samples to match the linear range of their respective assays. Irrespective of readout, compound concentrations that reduce viral product accumulation in the cell lysates or supernatants by 50% relative to no drug controls (EC50) are reported; EC50 ranges are as follows: A<0.1 μM; B 0.1-0.2 μM; C>0.2 μM.
row,Compound,EC50 [nM]
1,O=C(Nc1cc(F)c(F)c(F)c1)N1Cc2c(-c3ccc(F)cc3)cnn2[C@H]2CCC[C@H]21 [Example 1],> 200
2,O=C(Nc1ccc(F)c(F)c1)N1Cc2c(-c3ccc(F)cc3)cnn2[C@H]2CCC[C@H]21 [Example 2],> 200
3,O=C(Nc1ccc(F)c(Cl)c1)N1Cc2c(-c3ccc(F)cc3)cnn2[C@H]2CCC[C@H]21 [Example 3],> 200
4,O=C(Nc1cc(F)c(F)c(F)c1)N1Cc2c(N3CCCS3(=O)=O)cnn2[C@H]2CCC[C@H]21 [Example 4],< 100
5,O=C(Nc1ccc(F)c(F)c1)N1Cc2c(N3CCCS3(=O)=O)cnn2[C@H]2CCC[C@H]21 [Example 5],100 to 200
6,O=C(Nc1ccc(F)c(Cl)c1)N1Cc2c(N3CCCS3(=O)=O)cnn2[C@H]2CCC[C@H]21 [Example 6],< 100
7,O=C(Nc1cc(F)c(F)c(F)c1)N1Cc2c(-c3ccc(F)cc3)cnn2[C@@H]2CCC[C@@H]21 [Example 7],100 to 200
8,O=C(Nc1ccc(F)c(F)c1)N1Cc2c(-c3ccc(F)cc3)cnn2[C@@H]2CCC[C@@H]21 [Example 8],< 100
9,O=C(Nc1ccc(F)c(Cl)c1)N1Cc2c(-c3ccc(F)cc3)cnn2[C@@H]2CCC[C@@H]21 [Example 9],> 200
10,O=C(Nc1cc(F)c(F)c(F)c1)N1Cc2c(N3CCCS3(=O)=O)cnn2[C@@H]2CCC[C@@H]21 [Example 10],< 100
11,O=C(Nc1ccc(F)c(F)c1)N1Cc2c(N3CCCS3(=O)=O)cnn2[C@@H]2CCC[C@@H]21 [Example 11],< 100
12,O=C(Nc1ccc(F)c(Cl)c1)N1Cc2c(N3CCCS3(=O)=O)cnn2[C@@H]2CCC[C@@H]21 [Example 12],< 100
13,O=C(Nc1cc(F)c(F)c(F)c1)N1Cc2c(-c3cscn3)cnn2[C@@H]2CCC[C@@H]21 [Example 13],< 100
14,O=C(Nc1ccc(F)c(F)c1)N1Cc2c(-c3cscn3)cnn2[C@@H]2CCC[C@@H]21 [Example 14],< 100
15,C[C@@H]1N(c2cnn3c2CN(C(=O)Nc2cc(F)c(F)c(F)c2)[C@H]2CCC[C@H]23)C(=O)OC1(C)C [Example 15],< 100
16,O=C(Nc1ccc(F)c(F)c1)N1Cc2c(N3CCCS3(=O)=O)cnn2CC12CC2 [Example 16],> 200
17,C[C@@H]1N(c2cnn3c2CN(C(=O)Nc2ccc(F)c(F)c2)[C@H]2CCC[C@H]23)C(=O)OC1(C)C [Example 17],< 100
18,C[C@@H]1N(c2cnn3c2CN(C(=O)Nc2ccc(F)c(Cl)c2)[C@H]2CCC[C@H]23)C(=O)OC1(C)C [Example 18],< 100
19,CC1(C)CN(c2cnn3c2CN(C(=O)Nc2cc(F)c(F)c(F)c2)[C@H]2CCC[C@H]23)C(=O)O1 [Example 19],< 100
20,CC(C)[C@H]1COC(=O)N1c1cnn2c1CN(C(=O)Nc1cc(F)c(F)c(F)c1)[C@H]1CCC[C@H]12 [Example 26],< 100
21,O=C1OCCN1c1cnn2c1CN(C(=O)Nc1cc(F)c(F)c(F)c1)[C@H]1CCC[C@H]12 [Example 36],> 200
22,O=C1CCCN1c1cnn2c1CN(C(=O)Nc1cc(F)c(F)c(F)c1)[C@H]1CCC[C@H]12 [Example 37],< 100
23,C[C@H]1COC(=O)N1c1cnn2c1CN(C(=O)Nc1cc(F)c(F)c(F)c1)[C@H]1CCC[C@H]12 [Example 38],100 to 200
24,O=C(Nc1cc(F)c(F)c(F)c1)N1Cc2c(N3C(=O)O[C@@H]4CCC[C@@H]43)cnn2[C@@H]2CCC[C@@H]21 [Example 39],< 100
25,O=C1OC(c2ccccc2)CN1c1cnn2c1CN(C(=O)Nc1cc(F)c(F)c(F)c1)[C@H]1CCC[C@H]12 (stereo partly drawn) [Example 40],< 100
26,COC(=O)Nc1cnn2c1CN(C(=O)Nc1cc(F)c(F)c(F)c1)[C@H]1CCC[C@H]12 [Example 41],> 200
27,CCS(=O)(=O)Nc1cnn2c1CN(C(=O)Nc1cc(F)c(F)c(F)c1)[C@H]1CCC[C@H]12 [Example 43],> 200
28,C[C@@H]1CN(c2cnn3c2CN(C(=O)Nc2cc(F)c(F)c(F)c2)[C@H]2CCC[C@H]23)C(=O)O1 [Example 44],< 100

row,Compound,EC50 [nM]
1,O=C1OC(c2ccccn2)CN1c1cnn2c1CN(C(=O)Nc1cc(F)c(F)c(F)c1)[C@H]1CCC[C@H]12 (stereo partly drawn) [Example 45],< 100
2,O=C1OC(C2CCCC2)CN1c1cnn2c1CN(C(=O)Nc1cc(F)c(F)c(F)c1)[C@H]1CCC[C@H]12 (stereo partly drawn) [Example 46],> 200
3,CCC(=O)Oc1cnn2c1CN(C(=O)Nc1cc(F)c(F)c(F)c1)[C@H]1CCC[C@H]12 [Example 47],> 200
4,O=C(Nc1cc(F)c(F)c(F)c1)N1Cc2c(N3C(=O)C[C@@H]4CCC[C@@H]43)cnn2[C@@H]2CCC[C@@H]21 [Example 48],< 100
5,O=C(Nc1cc(F)c(F)c(F)c1)N1Cc2c(N3C(=O)C[C@H]4CCC[C@H]43)cnn2[C@@H]2CCC[C@@H]21 [Example 49],100 to 200
6,O=C1CC2(CC2)CN1c1cnn2c1CN(C(=O)Nc1cc(F)c(F)c(F)c1)[C@H]1CCC[C@H]12 [Example 50],< 100
7,O=C(Nc1cc(F)c(F)c(F)c1)N1Cc2c(N3C(=O)OC[C@@H]3c3ccccc3)cnn2[C@@H]2CCC[C@@H]21 [Example 52],> 200
8,O=C(Nc1cc(F)c(F)c(F)c1)N1Cc2c(N3C(=O)O[C@H]4CCCC[C@@H]43)cnn2[C@@H]2CCC[C@@H]21 [Example 54],< 100
9,O=C1OC2(CC2)CN1c1cnn2c1CN(C(=O)Nc1cc(F)c(F)c(F)c1)[C@H]1CCC[C@H]12 [Example 55],< 100
10,O=C(Nc1cc(F)c(F)c(F)c1)N1Cc2c(N3C(=O)OC[C@@H]3C3CCCC3)cnn2[C@@H]2CCC[C@@H]21 [Example 56],100 to 200
11,O=C1OC2(CCCC2)CN1c1cnn2c1CN(C(=O)Nc1cc(F)c(F)c(F)c1)[C@H]1CCC[C@H]12 [Example 57],< 100
12,O=C(Nc1cc(F)c(F)c(F)c1)N1Cc2c(N3C(=O)OC[C@@H]3C3CC3)cnn2[C@@H]2CCC[C@@H]21 [Example 58],100 to 200
13,O=C(Nc1cc(F)c(F)c(F)c1)N1Cc2c(N3C(=O)OC[C@H]3C3CC3)cnn2[C@@H]2CCC[C@@H]21 [Example 59],< 100
14,O=C(Nc1cc(F)c(F)c(F)c1)N1Cc2c(N3C(=O)OCC34CC4)cnn2[C@@H]2CCC[C@@H]21 [Example 61],100 to 200
15,CCS(=O)(=O)N(C)c1cnn2c1CN(C(=O)Nc1cc(F)c(F)c(F)c1)[C@H]1CCC[C@H]12 [Example 62],> 200
16,O=C(Nc1cc(F)c(F)c(F)c1)N1Cc2c(N3CCCS3(=O)=O)cnn2[C@@H]2COC[C@@H]21 [Example 63],> 200
17,O=C(Nc1cc(F)c(F)c(F)c1)N1Cc2c(N3C(=O)OC[C@@H]3Cc3ccccc3)cnn2[C@@H]2CCC[C@@H]21 [Example 64],100 to 200
18,CC(C)[C@@H]1N(c2cnn3c2CN(C(=O)Nc2cc(F)c(F)c(F)c2)[C@H]2CCC[C@H]23)C(=O)OC1(C)C [Example 65],< 100
19,O=C1OCCCN1c1cnn2c1CN(C(=O)Nc1cc(F)c(F)c(F)c1)[C@H]1CCC[C@H]12 [Example 66],100 to 200
20,CC1(C)CCN(c2cnn3c2CN(C(=O)Nc2cc(F)c(F)c(F)c2)[C@H]2CCC[C@H]23)C(=O)O1 [Example 67],< 100
21,CC(C)C[C@H]1COC(=O)N1c1cnn2c1CN(C(=O)Nc1cc(F)c(F)c(F)c1)[C@H]1CCC[C@H]12 [Example 68],100 to 200
22,CC(C)C[C@@H]1N(c2cnn3c2CN(C(=O)Nc2cc(F)c(F)c(F)c2)[C@H]2CCC[C@H]23)C(=O)OC1(C)C [Example 69],> 200
23,CC1(C)OC(=O)N(c2cnn3c2CN(C(=O)Nc2cc(F)c(F)c(F)c2)[C@H]2CCC[C@H]23)[C@H]1Cc1ccccc1 [Example 70],< 100
24,O=C(Nc1cc(F)c(F)c(F)c1)N1Cc2c(N3CCCS3(=O)=O)cnn2C[C@@H]1c1ccccc1 [Example 71],< 100
25,O=C(Nc1cc(F)c(F)c(F)c1)N1Cc2c(N3CCCS3(=O)=O)cnn2C[C@@H]1c1ncc[nH]1 [Example 74],> 200
26,O=C(Nc1cc(F)c(F)c(F)c1)N1Cc2c(N3CCCS3(=O)=O)cnn2C[C@@H]1c1cnco1 [Example 75],100 to 200
27,O=C(Nc1cc(F)c(F)c(F)c1)N1Cc2c(N3CCCS3(=O)=O)cnn2C[C@@H]1c1ccn[nH]1 [Example 76],> 200
